Patent US11981711B2, “Methods of treating spinal cord injury using a chondroitin sulfate proteoglycan (CSPG) reduction peptide (CRP) comprising a cell membrane penetrating domain, a CSPG binding domain, and a lysosome targeting domain” (The Cleveland Clinic Foundation, priority 2017, dated 2024)

How the values were obtained:
[1] = system: TBK1 and mitophagy adaptors; assay: TBK1 and mitophagy adaptors in spinal cord after SCI, SRP treatment; type: in vivo, rat; conditions: vs scrambled peptide
Source text: (A). Graphs represented mean±SEM of six samples per group for the % to GAPDH (B). *p<0.05, **p<0.01 and ***p<0.001 compared to scrambled peptide animals (two-tailed t test, n=3 per group).

[2] = system: spinal cord injury (SCI); assay: BBB open field locomotion test after T8 contusive SCI, SRP treatment; type: in vivo, rat; conditions: subcutaneous daily for one month beginning one day after SCI; vs scrambled peptide; entire observation period
Source text: (§1) In this Example, the SRP has been applied in a preclinical rat model to test the efficacy of the treatment of spinal cord injury (SCI) in a manner similar to Example 1 above for CRP.
Animals were subcutaneously injected with SRP daily for one month beginning one day after SCI and assessed by the BBB open field locomotion test to evaluate hind limb motor function at the designated time points. […] Values represent mean±SEM.

[3] = target: T1, SOCS3 (Rattus norvegicus, UniProt O88583); assay: SOCS3 level in sciatic nerve after sciatic nerve transection, SRP treatment; type: in vivo; set-up: from tissue; host or cells: sciatic nerve; conditions: once per day for 4 consecutive days beginning immediately after transection; vs scrambled peptide
T1 sequence (O88583 1-225): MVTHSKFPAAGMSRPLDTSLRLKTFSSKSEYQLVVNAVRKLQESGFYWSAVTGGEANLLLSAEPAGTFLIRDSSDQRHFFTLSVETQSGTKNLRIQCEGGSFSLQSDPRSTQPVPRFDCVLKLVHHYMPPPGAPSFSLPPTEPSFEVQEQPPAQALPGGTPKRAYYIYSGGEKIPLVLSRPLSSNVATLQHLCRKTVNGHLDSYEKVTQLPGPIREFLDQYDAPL

[4] = target: T2, SOCS1 (Rattus norvegicus, UniProt Q9QX78); assay: SOCS1 protein level in spinal cord after SCI, SRP treatment; type: in vivo; conditions: 7 days after SCI; once per day beginning one day after SCI
T2 construct: from tissue; host or cells: rat spinal cord
T2 sequence (Q9QX78 1-212): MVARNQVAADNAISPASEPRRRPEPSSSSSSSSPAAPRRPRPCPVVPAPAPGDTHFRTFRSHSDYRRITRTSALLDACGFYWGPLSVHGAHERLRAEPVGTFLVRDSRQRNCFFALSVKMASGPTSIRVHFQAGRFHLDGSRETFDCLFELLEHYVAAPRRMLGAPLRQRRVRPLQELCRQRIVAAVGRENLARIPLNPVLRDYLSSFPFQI

[5] = system: spinal cord injury (SCI); assay: Urodynamic analyses (CMG, EUS EMG) after T8 contusive SCI, SRP treatment; type: in vivo, rat; conditions: 3 months post-SCI
Description: as §1
Animals were treated daily with SRP for one month, beginning one day after SCI. Urodynamic analyses were conducted 3 months post-SCI. […] EUS EMG recording were conducted 3 months post-SCI.

[6] = target: T1, SOCS3; assay: SOCS3 protein level in spinal cord after SCI, SRP treatment; type: in vivo; set-up: from tissue; host or cells: rat spinal cord (epicenter and caudal segments); conditions: 7 days after SCI; once per day beginning one day after SCI; vs scrambled peptide
Source text: as §1
(§2) Graphs represent mean±SEM of five samples per group for the ratios of SOCS3 to actin (B) and p-STAT3 to STAT3 (C). +p<0.05, ++p<0.01, and +++p<0.001 compared to normal animals, and *p<0.05 and ***p<0.001 compared to scrambled peptide animals (two way ANOVA with Bonferroni multiple analyses).

[7] = system: arginase 1, iNOS, TNF-α; assay: qRT-PCR of markers for pro- vs. anti-inflammatory macrophages in spinal cord segments caudal to injury; type: in vivo, rat; conditions: vs scrambled peptide
Description: Rats were treated once per day beginning one day after SCI with SRP or scrambled peptide (scr) and mRNA was then harvested and analyzed by qRT-PCR. […] C.

[8] = system: STAT3; assay: STAT3 activation (phospho-STAT3 Tyr705) in spinal cord after SCI, SRP treatment; type: in vivo, rat; conditions: 7 days after SCI; once per day beginning one day after SCI
Source text: as §2

[9] = system: ED1+macrophages/microglia; assay: Double immunolabeling of ED1 and GFAP in spinal cord after SCI, SRP treatment; type: in vivo, rat; conditions: three months post-SCI, vs scrambled peptide
Description: SRP treatment beginning one day after SCI was administered for 30 consecutive days and then spinal cords were harvested three months post-SCI for double immunolabeling of ED1 and GFAP.

[10] = system: spinal cord injury (SCI); conditions: cited from earlier work
[11] = system: chondroitin sulfate proteoglycan (CSPG); assay: CSPG expression around the spinal cord lesion after contusive SCI, treatment from one day after SCI; type: in vivo, rat; conditions: two weeks after contusive SCI; treatment starting one day after SCI; vs vehicle
Source text: (§3) In this Example, the CRP has been applied in a preclinical rat model to test the efficacy of the treatment of spinal cord injury (SCI). The injury was made at thoracic 8 level using contusive injury device. The contusive SCI is the most clinical relevance among all experimental SCI models. We have assessed both motor and bladder control as functional outcomes and analyzed anatomical evidences to support these findings. We also selected sub-acute phase (ONE-DAY after SCI) and chronic phase (TWO-MONTHs after SCI) to start our treatment.
Furthermore CRP can efficiently improve locomotion and bladder electromyography (EMG) activities and voiding patterns after SCI.

[12] = system: spinal cord injury (SCI); assay: Locomotion (BBB 21-point score) and gait after chronic SCI, treatment from two months after SCI; type: in vivo, rat
Source text: Basso, Beattie, and Bresnahan (BBB) 21-point scoring test is used as the locomotion assessment after SCI. SCI causes significant deficits on locomotion function as indicated by the significant drop of BBB scores from 21 of the normal rats. […] However, ISP treatment slightly decreases BBB scores from 11.667±0.211 (two months after SCI) to 11.00±0.577 (two months plus 42 days after SCI) (A).
as §3
The above were followed up with studies to evaluate the treatment effects of CRP in chronic SCI. The chronic SCI is not only way more challenge to be repaired but also is the clinical status of the majority of patients with SCI.

[13] = once per day beginning one day after SCI

YGRKKRRQRRR-VQpYSTVVHS-KFERQKILDQRFFE [SRP]
TBK1 protein level [1, 13]: significantly increased | optineurin protein level [1, 13]: significantly increased | phospho-TBK1 Ser172 (p-TBK1) [1]: significant activation of TBK1 and p62 | phosphor-p62 Ser403 (p-p62) [1]: significant activation of TBK1 and p62 | hind limb locomotion (BBB) [2]: significant improvement in hind limb locomotion | sciatic nerve transection-upregulated SOCS3 [3]: significantly reduced | SOCS1 level [4]: not significantly altered | bladder hyperactivity (CMG) ([5]; daily for one month beginning one day after SCI): significantly reduced bladder hyperactivity | EUS EMG bursting activity during the void period ([5]; vs scrambled peptide): improvement in bursting activity | non-voiding contraction amplitude ([5]; vs scrambled peptide): significantly reduced | number of non-voiding contractions ([5]; vs scrambled peptide): significantly reduced | residual volume ([5]; vs scrambled peptide): significantly reduced | SCI-upregulated SOCS3 (ratio of SOCS3 to actin) [6]: significantly reduced | arginase 1 expression (mRNA) ([7]; 7 and 14 days post-SCI): increased | iNOS expression (mRNA) ([7]; 7 and 14 days post-SCI): decreased | TNF-α expression (mRNA) ([7]; 7 days post-SCI): decreased | phospho-STAT3 Tyr705 (p-STAT3 to STAT3) [8]: significant activation of STAT3 | SCI-increased ED1+macrophages/microglia ([9]; treatment for 30 consecutive days beginning one day after SCI): blocked SCI-induced upregulation of ED1+macrophages | GFAP+tissues surrounding the lesion epicenter [9]: preserved more GFAP+tissues

intracellular sigma peptide [ISP, reference compound]
functional recovery after SCI ([10]; applied immediately after SCI in rats): minor effects on promoting functional recovery | effect on chronic SCI ([10]; applied two-month after SCI): no effects on chronic SCI | effect on CSPG in vivo ([10]; background statement): no effects on CSPG | CSPG in lesion epicenter and adjacent tissue [11]: does not decrease CSPG | BBB score ([12]; two months after SCI (start of treatment)): 11.667±0.211 | BBB score ([12]; two months plus 42 days after SCI, treatment starting two months after contusive SCI): 11.00±0.577
